System: 926638-142-R-J1-PDC complex spheroid viability
Assay: Anticancer human tumor 926638-142-R-J1-PDC patient-derived endometrial carcinoma cell line growth inhibition [POLQ]
Details: for IC50: curve of first compound; for viability, T/C: stronger effect = lower value
Outline: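 PDC + HUVEC + MSC complex spheroids; POLQ inhibitors ± partner drugs; top conc. at/near clinical Cmax, else 10 microM (SN-38 1 microM), half-log dilutions; 37 degrees C, 5% CO2.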

[1] = second compound 0.0316 µM, first compound 0.0316 µM
[2] = second compound 0.0316 µM, first compound 0.1 µM
[3] = second compound 0.0316 µM, first compound 0.316 µM
[4] = second compound 0.0316 µM, first compound 1 µM
[5] = second compound 0.0316 µM, first compound 3.16 µM
[6] = second compound 0.0316 µM, first compound 10 µM
[7] = second compound 0.1 µM, first compound 0.0316 µM
[8] = second compound 0.1 µM, first compound 0.1 µM
[9] = second compound 0.1 µM, first compound 0.316 µM
[10] = second compound 0.1 µM, first compound 1 µM
[11] = second compound 0.1 µM, first compound 3.16 µM
[12] = second compound 0.1 µM, first compound 10 µM
[13] = second compound 0.316 µM, first compound 0.0316 µM
[14] = second compound 0.316 µM, first compound 0.1 µM
[15] = second compound 0.316 µM, first compound 0.316 µM
[16] = second compound 0.316 µM, first compound 1 µM
[17] = second compound 0.316 µM, first compound 3.16 µM
[18] = second compound 0.316 µM, first compound 10 µM
[19] = second compound 1 µM, first compound 0.0316 µM
[20] = second compound 1 µM, first compound 0.1 µM
[21] = second compound 1 µM, first compound 0.316 µM
[22] = second compound 1 µM, first compound 1 µM
[23] = second compound 1 µM, first compound 3.16 µM
[24] = second compound 1 µM, first compound 10 µM
[25] = second compound 3.16 µM, first compound 0.0316 µM
[26] = second compound 3.16 µM, first compound 0.1 µM
[27] = second compound 3.16 µM, first compound 0.316 µM
[28] = second compound 3.16 µM, first compound 1 µM
[29] = second compound 3.16 µM, first compound 3.16 µM
[30] = second compound 3.16 µM, first compound 10 µM
[31] = second compound 10 µM, first compound 0.0316 µM
[32] = second compound 10 µM, first compound 0.1 µM
[33] = second compound 10 µM, first compound 0.316 µM
[34] = second compound 10 µM, first compound 1 µM
[35] = second compound 10 µM, first compound 3.16 µM
[36] = second compound 10 µM, first compound 10 µM
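Also: spheroids exposed to drugs for one week before readout.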
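For viability, T/C in this document: percent viability relative to DMSO vehicle control wells set as 100%.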

O=C(Nc1ccc(O)c(NS(=O)(=O)c2ccc(F)cc2)c1)c1ccc(-c2ccccc2)cc1 + Nc1ccc(C#CCN(C(=O)Cc2ncc(C(F)(F)F)cc2C(F)(F)F)c2ccc(F)cc2)nn1
IC50 (second compound 0.0316 µM): > 10000 nM | IC50 (second compound 0.1 µM): > 10000 nM | IC50 (second compound 0.316 µM): > 10000 nM | IC50 (second compound 1 µM): > 10000 nM | IC50 (second compound 3.16 µM): > 10000 nM | IC50 (second compound 10 µM): > 10000 nM | viability, T/C [1]: 106% | viability, T/C [2]: 101% | viability, T/C [3]: 80.8% | viability, T/C [4]: 110% | viability, T/C [5]: 95.7% | viability, T/C [6]: 82.8% | viability, T/C [7]: 105% | viability, T/C [8]: 103% | viability, T/C [9]: 107% | viability, T/C [10]: 108% | viability, T/C [11]: 96.4% | viability, T/C [12]: 81.3% | viability, T/C [13]: 114% | viability, T/C [14]: 102% | viability, T/C [15]: 99.5% | viability, T/C [16]: 116% | viability, T/C [17]: 109% | viability, T/C [18]: 81.1% | viability, T/C [19]: 98% | viability, T/C [20]: 106% | viability, T/C [21]: 103% | viability, T/C [22]: 105% | viability, T/C [23]: 105% | viability, T/C [24]: 71.9% | viability, T/C [25]: 100% | viability, T/C [26]: 82.4% | viability, T/C [27]: 96.1% | viability, T/C [28]: 100% | viability, T/C [29]: 106% | viability, T/C [30]: 67.6% | viability, T/C [31]: 92.2% | viability, T/C [32]: 92.8% | viability, T/C [33]: 89.5% | viability, T/C [34]: 104% | viability, T/C [35]: 104% | viability, T/C [36]: 72.5%

CC1COCCN1c1cc(-c2ccnn2C)c2ccnc(-c3ccn[nH]3)c2n1 (stereo not drawn) + Nc1ccc(C#CCN(C(=O)Cc2ncc(C(F)(F)F)cc2C(F)(F)F)c2ccc(F)cc2)nn1
IC50 (second compound 0.0316 µM): 503 nM | IC50 (second compound 0.1 µM): 386 nM | IC50 (second compound 0.316 µM): 377 nM | IC50 (second compound 1 µM): 285 nM | IC50 (second compound 3.16 µM): 357 nM | IC50 (second compound 10 µM): 369 nM | viability, T/C [1]: 101% | viability, T/C [2]: 83.7% | viability, T/C [3]: 60.3% | viability, T/C [4]: 36.7% | viability, T/C [5]: 14% | viability, T/C [6]: 9.34% | viability, T/C [7]: 108% | viability, T/C [8]: 85.9% | viability, T/C [9]: 50.5% | viability, T/C [10]: 33.7% | viability, T/C [11]: 14.1% | viability, T/C [12]: 9.21% | viability, T/C [13]: 104% | viability, T/C [14]: 84.7% | viability, T/C [15]: 54.5% | viability, T/C [16]: 26.7% | viability, T/C [17]: 16.8% | viability, T/C [18]: 10.1% | viability, T/C [19]: 99.7% | viability, T/C [20]: 69.6% | viability, T/C [21]: 51.7% | viability, T/C [22]: 27.5% | viability, T/C [23]: 14.3% | viability, T/C [24]: 9.7% | viability, T/C [25]: 89.8% | viability, T/C [26]: 73.6% | viability, T/C [27]: 53.9% | viability, T/C [28]: 28.6% | viability, T/C [29]: 16.7% | viability, T/C [30]: 8.56% | viability, T/C [31]: 73.3% | viability, T/C [32]: 74.5% | viability, T/C [33]: 52.5% | viability, T/C [34]: 25.7% | viability, T/C [35]: 15.1% | viability, T/C [36]: 9.63%

COc1cccc(OCCCN)c1-c1cc(Nc2cnc(C#N)cn2)n[nH]1 + COC1C(OC(N)=O)C(O)C(Oc2ccc3c(O)c(NC(=O)c4ccc(O)c(CC=C(C)C)c4)c(=O)oc3c2C)OC1(C)C
IC50 (second compound 0.0316 µM): 146 nM | IC50 (second compound 0.1 µM): 122 nM | IC50 (second compound 0.316 µM): 113 nM | IC50 (second compound 1 µM): 107 nM | IC50 (second compound 3.16 µM): 70.5 nM | IC50 (second compound 10 µM): 77.7 nM | viability, T/C (second compound 0.0316 µM, first compound 0.00316 µM): 104% | viability, T/C (second compound 0.0316 µM, first compound 0.01 µM): 96.4% | viability, T/C [1]: 65.9% | viability, T/C [2]: 61.8% | viability, T/C [3]: 36% | viability, T/C [4]: 24.8% | viability, T/C (second compound 0.1 µM, first compound 0.00316 µM): 111% | viability, T/C (second compound 0.1 µM, first compound 0.01 µM): 79% | viability, T/C [7]: 68.3% | viability, T/C [8]: 56.6% | viability, T/C [9]: 39% | viability, T/C [10]: 31.5% | viability, T/C (second compound 0.316 µM, first compound 0.00316 µM): 94.2% | viability, T/C (second compound 0.316 µM, first compound 0.01 µM): 74.5% | viability, T/C [13]: 62.7% | viability, T/C [14]: 51.4% | viability, T/C [15]: 42.2% | viability, T/C [16]: 35.2% | viability, T/C (second compound 1 µM, first compound 0.00316 µM): 87.7% | viability, T/C (second compound 1 µM, first compound 0.01 µM): 77.9% | viability, T/C [19]: 47.3% | viability, T/C [20]: 56.4% | viability, T/C [21]: 49.1% | viability, T/C [22]: 29.6% | viability, T/C (second compound 3.16 µM, first compound 0.00316 µM): 92.6% | viability, T/C (second compound 3.16 µM, first compound 0.01 µM): 89.3% | viability, T/C [25]: 60.4% | viability, T/C [26]: 46.2% | viability, T/C [27]: 46.5% | viability, T/C [28]: 31.7% | viability, T/C (second compound 10 µM, first compound 0.00316 µM): 81.2% | viability, T/C (second compound 10 µM, first compound 0.01 µM): 80.8% | viability, T/C [31]: 65% | viability, T/C [32]: 44.5% | viability, T/C [33]: 36.9% | viability, T/C [34]: 27.9%

CCc1cc2c(N3CCc4c(cc(Cn5ccnc5)cc4-c4cn(C)nc4C(F)(F)F)C3=O)ccnc2c(OC)n1 + Cc1cccc(N(C)C(=O)C2C(O)CCN2c2nc(C)cc(C(F)(F)F)c2C#N)c1
IC50 (second compound 0.0316 µM): 287 nM | IC50 (second compound 0.1 µM): 356 nM | IC50 (second compound 0.316 µM): 1290 nM | IC50 (second compound 1 µM): 346 nM | IC50 (second compound 3.16 µM): 483 nM | IC50 (second compound 10 µM): 379 nM | viability, T/C [1]: 76.8% | viability, T/C [2]: 74.5% | viability, T/C [3]: 46.7% | viability, T/C [4]: 44.8% | viability, T/C [5]: 38.6% | viability, T/C [6]: 29.6% | viability, T/C [7]: 112% | viability, T/C [8]: 70.1% | viability, T/C [9]: 48.3% | viability, T/C [10]: 45.5% | viability, T/C [11]: 41.8% | viability, T/C [12]: 29.1% | viability, T/C [13]: 70.8% | viability, T/C [14]: 66.1% | viability, T/C [15]: 59% | viability, T/C [16]: 55% | viability, T/C [17]: 40% | viability, T/C [18]: 26.7% | viability, T/C [19]: 83.4% | viability, T/C [20]: 59.4% | viability, T/C [21]: 47% | viability, T/C [22]: 52.7% | viability, T/C [23]: 37.3% | viability, T/C [24]: 33% | viability, T/C [25]: 87.1% | viability, T/C [26]: 70.9% | viability, T/C [27]: 55.5% | viability, T/C [28]: 40.9% | viability, T/C [29]: 32.1% | viability, T/C [30]: 25.7% | viability, T/C [31]: 85.9% | viability, T/C [32]: 59.4% | viability, T/C [33]: 58.4% | viability, T/C [34]: 36.7% | viability, T/C [35]: 34.2% | viability, T/C [36]: 23.6%

Source: PubChem BioAssay AID1963826 (Molecular Pharmacology Branch, DTP, NCI, 2024)
